# From PMC9106491, “In Vitro Antioxidant, Anti-Inflammatory, and Digestive Enzymes Inhibition Activities of Hydro-Ethanolic Leaf and Bark Extracts of Psychotria densinervia (K. Krause) Verdc” (Advances in Pharmacological and Pharmaceutical Sciences, 2022)
# “And” between values parts separate entries of the source, which are not always exact repeats. Identical values can stand only once.
# How the values were obtained:
# ABTS radical scavenging = details: 15 mins, 734 nm
# Description: ABTS scavenging activity was evaluated by the discoloration of the cationic radical ABTS^∗^+, as per the technique described by Arnao et al. with some modifications. Briefly, the ABTS reagent was obtained by mixing an ethanolic solution of ABTS (7.4 mM) and an aqueous solution of potassium persulfate (2.6 mM). After mixing, the solution was incubated in the dark for 24 hours. The ABTS solution obtained was diluted until an absorbance of 1.5 was obtained at 734 nm. Two hundred microliters of each extract or catechin at different concentrations (15.62, 31.25, 62.5, and 250 μg/ml) was added to 1800 μl of the ABTS solution prepared above. The mixture was incubated in the dark for 15 mins, and the absorbance was read with a spectrophotometer at 734 nm against the blank. Catechin was used as the standard. […] The IC50 was calculated as in DPPH.
# [1] = DPPH free radical scavenging; details: 30 mins, 517 nm
# Description: The DPPH scavenging assay was conducted by the method of Sanchez-Moreno et al. with some modifications. DPPH (0.1 mM) stock solution was diluted in methanol, and the absorbance was adjusted to 1.5 at 517 nm wavelength. […] extracts (500 μl) at different concentrations (15.62, 31.25, 62.5, and 250 μg/ml) were mixed with 2000 μl of DPPH solution and read with the aid of a spectrophotometer at 517 nm after 30 mins of incubation in the dark.
# [2] = target: T1, pancreatic cholesterol esterase (Sus scrofa, UniProt A0A286ZKB1); details: read-out: Cholesterol esterase IC50; p-NPB substrate
# T1 sequence (A0A286ZKB1 95-682): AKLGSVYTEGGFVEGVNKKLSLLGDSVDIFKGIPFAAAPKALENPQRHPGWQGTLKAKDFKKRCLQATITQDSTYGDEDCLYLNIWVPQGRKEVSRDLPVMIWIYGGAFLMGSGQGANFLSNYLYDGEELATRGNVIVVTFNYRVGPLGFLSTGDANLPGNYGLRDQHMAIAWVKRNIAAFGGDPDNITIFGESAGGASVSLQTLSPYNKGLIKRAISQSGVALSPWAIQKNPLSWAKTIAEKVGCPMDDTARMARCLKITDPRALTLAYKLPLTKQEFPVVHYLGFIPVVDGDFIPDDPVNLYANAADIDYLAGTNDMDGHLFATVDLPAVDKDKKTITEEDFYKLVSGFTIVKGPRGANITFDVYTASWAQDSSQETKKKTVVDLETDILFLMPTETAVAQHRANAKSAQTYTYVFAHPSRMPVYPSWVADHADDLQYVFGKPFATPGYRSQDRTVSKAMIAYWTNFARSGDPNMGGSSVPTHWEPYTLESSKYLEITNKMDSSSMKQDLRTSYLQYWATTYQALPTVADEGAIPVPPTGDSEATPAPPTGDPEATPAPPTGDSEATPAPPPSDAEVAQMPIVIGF
# Description: Briefly, 50 μl of the extracts at different concentrations (3.12, 6.25, 12.5, 25, 50, 100, and 200 μg/ml) was added to 50 μl of 5.16 mM taurocholic acid and 50 μl of an aqueous solution of cholesterol esterase and incubated for 10 mins at 25°C. Then, 50 μl of p-nitrophenyl butyrate substrate (0.2 mM) was added to the mixture and incubated for 5 mins at 25°C. Cholesterol esterase inhibitory activity was determined by measuring the hydrolysis of p-NPB to p-nitrophenol at 405 nm using an ELISA microplate reader (BK-EL10 C).
# Anticholesterol esterase activity is given as IC50 values (the concentrations that inhibited 50% of the hydrolysis of pNPB to p-nitrophenol).
# [3] = target: T2, porcine pancreatic lipase (Sus scrofa, UniProt P00591); test: Pancreatic lipase inhibition; assay type: biochemical; details: read-out: inhibition percentage of lipase
# T2 construct: purchased Sigma-Alrich Chemical Co
# T2 sequence (P00591 1-450): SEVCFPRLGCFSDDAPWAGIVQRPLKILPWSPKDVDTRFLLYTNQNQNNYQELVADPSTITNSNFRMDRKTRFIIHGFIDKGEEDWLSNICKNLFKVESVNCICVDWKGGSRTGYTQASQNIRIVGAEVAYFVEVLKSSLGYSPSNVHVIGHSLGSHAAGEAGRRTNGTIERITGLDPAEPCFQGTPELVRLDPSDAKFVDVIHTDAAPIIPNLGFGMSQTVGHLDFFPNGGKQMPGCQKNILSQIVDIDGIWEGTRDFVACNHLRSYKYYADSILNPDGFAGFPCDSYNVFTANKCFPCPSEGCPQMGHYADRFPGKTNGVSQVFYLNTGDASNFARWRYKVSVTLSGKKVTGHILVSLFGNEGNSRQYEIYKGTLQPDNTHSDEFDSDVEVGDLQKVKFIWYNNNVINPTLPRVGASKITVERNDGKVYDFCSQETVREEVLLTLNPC
# Description: The method described by Kim et al. was used in this assay. […] The mixture was then incubated at 37°C for 37 mins. The reaction was started by the addition of 10 μl of p-nitrophenyl butyrate substrate (10 mM p-NPB) in dimethylformamide.
smiles,measurement,setting,value
O.Oc1cc(O)c2c(c1)O[C@H](c1ccc(O)c(O)c1)[C@@H](O)C2 [catechin],ABTS IC50,ABTS radical scavenging,33.48 ± 2.02 µg/mL
O=C1O[C@H]([C@@H](O)CO)C(O)=C1O [ascorbic acid],DPPH IC50,[1],71.78 ± 6.37 µg/mL and 71.98 ± 1.21 µg/mL
CCCCCCCCCCC[C@@H](C[C@@H]1OC(=O)[C@H]1CCCCCC)OC(=O)[C@H](CC(C)C)NC=O [orlistat],IC50,[2],110 µM
same,inhibition at 200 µg/mL,[3],97.83 ± 0.34%
